Earlier results in patent publication US4925674A (hiMedics, Inc., priority 1988, dated 1990).

Conditions: well known

Q: Which dose-related gastrointestinal upsets does the source give for `CC1(C)S[C@@H]2[C@H](NC(=O)[C@H](N)c3ccc(O)cc3)C(=O)N2[C@H]1C(=O)O` [Amoxicillin, amoxicillin] here?
A: dose-related gastrointestinal upsets (epigastric distress, nausea, vomiting, and especially diarrhea) occur commonly
